# According to patent US10300058B2, “Tyrosine kinase inhibitor and uses thereof” (Xuanzhu Pharma Co., Ltd., priority 2014, dated 2019):
# Columns and labels:
# [1] = target: EGFR L858R (Homo sapiens (Human), UniProt P00533, L858R); assay: Mobility Shift Assay, in vitro enzyme-inhibiting activity, EGFR L858R; assay type: biochemical; conditions: for IC50: Km ATP; for Selectivity WT/L858R: ratio of IC50
# Procedure: (§1) 1. Preparation of Reagents
# (§2) 2. Preparation of a Compound Solution
# (§3) (1) To the second well of a 96-well plate, 5 μL 10 mM compound (dissolved in DMSO) was added, and 95 μL 100% DMSO was added to prepare 100 μL 0.5 mM compound.
# (§4) (2) To other wells, 60 μL 100% DMSO was added. 20 μL compound from the second well was added to the third well, and 4-fold dilution was further performed to get 10 diluted concentrations.
# (§5) (3) To the first well and the twelfth well of the 96-well plate, 100 μL 100% DMSO was separately added, and the two wells were used as control wells.
# (§6) (4) 10 μL from each well of the 96-well plate was added to another 96-well plate, and 90 μL 1-fold kinase buffer was added.
# (§7) (5) 5 μL from the 96-well plate was added to another 384-well plate, for example, transferred from A1 well of the 96-well plate to A1 and A2 wells of the 384-well plate, and transferred from A2 well of the 96-well plate to A3 and A4 wells of the 384-well plate, and so on.
# (§8) To 384-well plate, 10 μL 2.5-fold enzyme solution was added, and incubated at room temperature for 10 min.
# (§9) (5) Kinase reaction and stop
# (§10) After incubation at 28° C. for a period of time (depending on kinase), 25 μL stop solution was added.
# (§11) 4. Data on percent conversion was read by Caliper.
# (§12) (1) Data on enzyme activity was obtained by Caliper program;
# (§13) (2) Inhibition rate of enzyme activity was calculated from the data on enzyme activity by the following formula: Inhibition rate(%)=(maximal value−the measured value of a test compound)/(maximal value-minimal value)×100,
# (§14) wherein, the maximal value represents the measured value of DMSO control; and the minimal value represents the measured value of blank control.
# (§15) (3) Calculation of IC50 value by XLFit excel.
# [2] = target: EGFR T790M (Homo sapiens (Human), UniProt P00533, T790M); assay: Mobility Shift Assay, in vitro enzyme-inhibiting activity, EGFR T790M; assay type: biochemical; conditions: for IC50: Km ATP; for Selectivity (WT/T790M): ratio of IC50
# Chain of EGFR T790M (P00533 25-1210 T790M): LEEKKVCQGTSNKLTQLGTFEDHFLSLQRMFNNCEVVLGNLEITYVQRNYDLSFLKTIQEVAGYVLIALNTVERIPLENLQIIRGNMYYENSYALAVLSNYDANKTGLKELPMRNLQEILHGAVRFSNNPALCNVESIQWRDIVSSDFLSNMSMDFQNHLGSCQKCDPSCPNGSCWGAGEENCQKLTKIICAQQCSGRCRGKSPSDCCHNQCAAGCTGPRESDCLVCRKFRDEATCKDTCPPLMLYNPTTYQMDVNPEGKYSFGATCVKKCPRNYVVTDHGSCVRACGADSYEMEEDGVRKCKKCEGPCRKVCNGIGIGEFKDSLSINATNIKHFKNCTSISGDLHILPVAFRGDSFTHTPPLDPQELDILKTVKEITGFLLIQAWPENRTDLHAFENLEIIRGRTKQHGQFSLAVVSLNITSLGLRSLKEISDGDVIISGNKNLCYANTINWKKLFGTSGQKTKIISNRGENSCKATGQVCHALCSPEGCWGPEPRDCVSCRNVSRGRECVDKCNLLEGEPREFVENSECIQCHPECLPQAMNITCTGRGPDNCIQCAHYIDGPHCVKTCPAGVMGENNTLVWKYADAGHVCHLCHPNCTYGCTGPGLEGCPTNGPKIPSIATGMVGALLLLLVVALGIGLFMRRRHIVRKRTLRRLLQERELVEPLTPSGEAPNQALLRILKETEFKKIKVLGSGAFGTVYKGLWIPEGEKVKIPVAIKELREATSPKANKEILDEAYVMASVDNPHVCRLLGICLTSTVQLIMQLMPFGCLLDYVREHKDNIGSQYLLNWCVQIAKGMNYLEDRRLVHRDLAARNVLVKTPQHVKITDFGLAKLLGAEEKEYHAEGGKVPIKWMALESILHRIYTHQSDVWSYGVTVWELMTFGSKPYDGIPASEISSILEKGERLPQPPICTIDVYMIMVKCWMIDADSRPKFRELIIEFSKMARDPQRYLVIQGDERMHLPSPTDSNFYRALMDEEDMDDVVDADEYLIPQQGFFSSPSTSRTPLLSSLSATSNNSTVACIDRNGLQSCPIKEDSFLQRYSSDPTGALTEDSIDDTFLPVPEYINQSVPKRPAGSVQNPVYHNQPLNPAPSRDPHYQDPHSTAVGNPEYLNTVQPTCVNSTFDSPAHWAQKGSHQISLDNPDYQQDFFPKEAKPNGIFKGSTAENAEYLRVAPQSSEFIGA
# Procedure: as §1, §2, §3, §4, §5, §6, §7, §8, §9, §10, §11, §12, §13, §14, §15
# [3] = target: wild-type EGFR (WT EGFR) (Homo sapiens (Human), UniProt P00533); assay: Mobility Shift Assay, in vitro enzyme-inhibiting activity, wild-type EGFR; assay type: biochemical; conditions: Km ATP
# Chain of wild-type EGFR (WT EGFR) (P00533 25-1210): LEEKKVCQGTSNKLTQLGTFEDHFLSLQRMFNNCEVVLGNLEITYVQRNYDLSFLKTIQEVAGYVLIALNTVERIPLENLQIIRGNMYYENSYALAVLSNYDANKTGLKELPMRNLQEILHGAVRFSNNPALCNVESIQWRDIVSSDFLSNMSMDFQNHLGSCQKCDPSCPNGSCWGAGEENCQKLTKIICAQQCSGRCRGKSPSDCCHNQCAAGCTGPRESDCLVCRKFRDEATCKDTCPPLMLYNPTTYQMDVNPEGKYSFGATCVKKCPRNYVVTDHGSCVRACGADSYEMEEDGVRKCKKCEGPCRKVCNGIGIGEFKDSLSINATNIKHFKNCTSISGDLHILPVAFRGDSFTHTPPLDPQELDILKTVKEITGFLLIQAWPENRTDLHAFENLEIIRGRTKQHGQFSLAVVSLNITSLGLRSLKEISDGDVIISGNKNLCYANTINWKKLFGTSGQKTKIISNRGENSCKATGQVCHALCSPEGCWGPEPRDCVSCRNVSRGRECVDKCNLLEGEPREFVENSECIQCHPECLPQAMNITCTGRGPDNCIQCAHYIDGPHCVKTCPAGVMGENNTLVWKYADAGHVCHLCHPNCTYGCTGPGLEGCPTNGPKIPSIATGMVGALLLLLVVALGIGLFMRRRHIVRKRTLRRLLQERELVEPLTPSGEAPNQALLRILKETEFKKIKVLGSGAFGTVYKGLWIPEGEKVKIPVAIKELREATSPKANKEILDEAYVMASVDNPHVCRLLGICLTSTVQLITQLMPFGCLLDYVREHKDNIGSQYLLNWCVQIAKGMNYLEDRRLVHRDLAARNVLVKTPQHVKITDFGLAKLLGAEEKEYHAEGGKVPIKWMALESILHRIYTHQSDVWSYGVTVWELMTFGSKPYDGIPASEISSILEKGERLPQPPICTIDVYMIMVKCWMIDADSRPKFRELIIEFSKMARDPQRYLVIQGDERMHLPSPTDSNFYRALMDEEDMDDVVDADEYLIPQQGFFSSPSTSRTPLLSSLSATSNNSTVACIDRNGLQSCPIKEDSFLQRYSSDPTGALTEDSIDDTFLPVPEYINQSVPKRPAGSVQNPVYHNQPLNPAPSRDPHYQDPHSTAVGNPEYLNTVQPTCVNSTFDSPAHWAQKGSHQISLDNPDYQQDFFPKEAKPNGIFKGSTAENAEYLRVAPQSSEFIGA
# Procedure: as §1, §2, §3, §4, §5, §6, §7, §8, §9, §10, §11, §12, §13, §14, §15
# [4] = target: EGFR T790M-L858R (Homo sapiens (Human), UniProt P00533, L858R/T790M); assay: Mobility Shift Assay, in vitro enzyme-inhibiting activity, EGFR T790M-L858R; assay type: biochemical; conditions: for IC50: Km ATP; for Selectivity WT/T790M-L858R: ratio of IC50
# Procedure: as §1, §2, §3, §4, §5, §6, §7, §8, §9, §10, §11, §12, §13, §14, §15
# [5] = target: EGFR (d746-750) (Homo sapiens (Human), UniProt P00533, DEL746-750); assay: Mobility Shift Assay, in vitro enzyme-inhibiting activity, EGFR (d746-750); assay type: biochemical; conditions: for IC50: Km ATP; for Selectivity WT/d746-750: ratio of IC50
# Chain of EGFR (d746-750) (P00533 other isoform, or with tags, fused parts or gaps del 1-668/del 746-750 limits assumed): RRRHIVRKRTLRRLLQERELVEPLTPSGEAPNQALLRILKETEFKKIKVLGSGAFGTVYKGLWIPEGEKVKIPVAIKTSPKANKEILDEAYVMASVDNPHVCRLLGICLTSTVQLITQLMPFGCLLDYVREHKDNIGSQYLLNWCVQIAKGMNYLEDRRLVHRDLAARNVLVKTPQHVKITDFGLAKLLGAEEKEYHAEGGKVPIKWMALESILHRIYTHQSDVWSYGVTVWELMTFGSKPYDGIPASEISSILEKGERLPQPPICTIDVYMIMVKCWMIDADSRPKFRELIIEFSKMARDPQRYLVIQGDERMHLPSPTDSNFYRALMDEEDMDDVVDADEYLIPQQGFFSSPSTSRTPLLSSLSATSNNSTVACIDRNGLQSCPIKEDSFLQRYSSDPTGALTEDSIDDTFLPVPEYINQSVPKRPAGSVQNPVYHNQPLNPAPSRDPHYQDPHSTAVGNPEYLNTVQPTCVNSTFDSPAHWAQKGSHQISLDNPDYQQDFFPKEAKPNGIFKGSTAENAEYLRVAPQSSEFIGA
# Procedure: as §1, §2, §3, §4, §5, §6, §7, §8, §9, §10, §11, §12, §13, §14, §15
# [6] = system: H1975 cell (EGFR-T790M/L858R double mutation); assay: In vitro cytologic activity, Celltiter-Glo, H1975 cells; assay type: cell-based, human; conditions: for IC50: Homo sapiens, NCI-H1975, 72 h, 72 h, Celltiter-Glo; for Selectivity (A431/H1975): ratio of IC50
# Procedure: (§16) 1.1 Preparation of Cell Suspension
# (§17) Culture medium was removed from culture bottle;
# (§18) PBS was added to wash the cells; • pancreatin was added for digestion, and the cells were collected by centrifugation; • the cells were resuspended in a culture medium containing 10% fetal bovine serum, counted and adjusted to a concentration of 2×10^4/mL or 3×10^4/mL (cell viability must be greater than 90%); • the cell suspension was added to a 96-well plate, at 100 μL for each well, i.e., 2000/well for H1975 cell; 3000/well for A431 cell; and • the cells were cultured at 37° C. in 5% CO2 incubator overnight.
# (§19) Dilution of a compound in DMSO (or water for injection) • (1) The compound was 5-fold diluted with DMSO from 10 mM to 2 mM, and then 4-fold diluted from 2 mM, to get 10 concentrations; • High control (HC, control without compound inhibition): 0.5% DMSO; • Low control (LC, control with compound inhibition): 1000 nM.
# (§20) i. To each well, 99 μL growth medium containing 10% FBS was added, and then 1 μL diluted compound was added, the total volume of the well was […], and the final concentration of the compound was measured.
# (§21) The test plate was left at room temperature, and equilibrated for 30 min. 80 μL culture medium was discarded. 60 μL CTG reagent (Celltiter-Glo kit) was added, and shaked for 2 min in a fast shaker, and was placed at room temperature for 10 min. The values were read by Envision instrument.
# [7] = system: A431 cell (wild-type EGFR gene); assay: In vitro cytologic activity, Celltiter-Glo, A431 cells; assay type: cell-based; conditions: Homo sapiens, A-431, 72 h
# Procedure: as §16, §17, §18, §19, §20, §21
# Chain of EGFR L858R (P00533 25-1210 L858R): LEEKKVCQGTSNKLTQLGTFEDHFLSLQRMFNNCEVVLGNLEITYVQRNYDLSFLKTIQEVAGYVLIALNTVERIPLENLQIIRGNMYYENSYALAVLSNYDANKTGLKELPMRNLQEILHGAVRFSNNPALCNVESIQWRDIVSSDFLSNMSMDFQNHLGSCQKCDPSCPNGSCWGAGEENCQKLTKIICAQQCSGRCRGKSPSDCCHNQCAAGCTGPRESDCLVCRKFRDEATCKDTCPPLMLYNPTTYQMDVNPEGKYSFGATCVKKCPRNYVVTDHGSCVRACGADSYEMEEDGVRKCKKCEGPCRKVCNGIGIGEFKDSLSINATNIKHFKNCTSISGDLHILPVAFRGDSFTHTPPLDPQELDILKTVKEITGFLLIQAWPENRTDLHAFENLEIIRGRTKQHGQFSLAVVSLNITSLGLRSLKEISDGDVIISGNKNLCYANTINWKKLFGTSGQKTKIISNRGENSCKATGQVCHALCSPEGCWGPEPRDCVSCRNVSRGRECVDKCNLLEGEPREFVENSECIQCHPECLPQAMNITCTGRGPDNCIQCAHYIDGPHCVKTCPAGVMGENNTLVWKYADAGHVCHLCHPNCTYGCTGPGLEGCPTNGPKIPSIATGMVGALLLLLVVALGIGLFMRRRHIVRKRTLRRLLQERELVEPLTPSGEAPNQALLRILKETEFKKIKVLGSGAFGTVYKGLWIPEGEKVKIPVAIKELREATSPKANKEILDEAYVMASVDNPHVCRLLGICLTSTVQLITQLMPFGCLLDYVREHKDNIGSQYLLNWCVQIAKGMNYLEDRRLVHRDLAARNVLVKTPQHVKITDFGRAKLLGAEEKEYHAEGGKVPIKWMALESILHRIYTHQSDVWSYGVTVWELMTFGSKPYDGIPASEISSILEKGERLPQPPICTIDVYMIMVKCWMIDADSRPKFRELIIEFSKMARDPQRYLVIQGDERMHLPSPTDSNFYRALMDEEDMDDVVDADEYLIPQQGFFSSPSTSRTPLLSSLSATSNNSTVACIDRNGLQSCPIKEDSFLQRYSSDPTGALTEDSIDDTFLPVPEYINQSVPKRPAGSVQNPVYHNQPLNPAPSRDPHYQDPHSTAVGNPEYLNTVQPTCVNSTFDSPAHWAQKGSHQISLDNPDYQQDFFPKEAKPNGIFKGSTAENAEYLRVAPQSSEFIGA
smiles,measurement,setting,value
"C=CC(=O)Nc1cccc(Nc2nc(Nc3ccc(C4=CCN(C(C)=O)CC4)cc3OC)ncc2C(F)(F)F)c1 [Compound 3, N-(3-((2-((4-(1-acetyl-1,2,3,6-tetrahydropyridin-4-yl)-2-methoxyphenyl)amino)-5-(trifluoromethyl)pyrimidin-4-yl)amino)phenyl)acrylamide]",IC50,[1]; Table 5,154 nM
same,Selectivity WT/L858R,[1]; Table 5,4.8
same,IC50,[2]; Table 1,4.7 nM
same,Selectivity (WT/T790M),[2]; Table 1,148.7
same,IC50,[3]; Table 1,699 nM
same,IC50,[3]; Table 5,733 nM
same,IC50,[4]; Table 5,6 nM
same,Selectivity WT/T790M-L858R,[4]; Table 5,122.9
same,IC50,[5]; Table 5,51.4 nM
same,Selectivity WT/d746-750,[5]; Table 5,14.2
"C=CC(=O)Nc1cccc(Nc2nc(Nc3ccc(C4CCN(C(C)=O)CC4)cc3OC)ncc2C(F)(F)F)n1 [Compound 4, N-(6-((2-((4-(1-acetylpiperidin-4-yl)-2-methoxyphenyl)amino)-5-(trifluoromethyl)pyrimidin-4-yl)amino)pyridin-2-yl)acrylamide]",IC50,[1]; Table 7,82 nM
same,Selectivity WT/L858R,[1]; Table 7,5.2
same,IC50,[2]; Table 3,7.2 nM
same,Selectivity (WT/T790M),[2]; Table 3,58.8
same,IC50,[2]; Table 7,7.2 nM
same,Selectivity (WT/T790M),[2]; Table 7,58.8
same,IC50,[3]; Table 3,423 nM
same,IC50,[3]; Table 7,423 nM
same,IC50,[4]; Table 7,5.2 nM
same,Selectivity WT/T790M-L858R,[4]; Table 7,81.3
same,IC50,[5]; Table 7,40 nM
same,Selectivity WT/d746-750,[5]; Table 7,10.6
"C=CC(=O)Nc1cccc(Nc2nc(Nc3ccc(N4CC5CCC(C4)N5C(C)=O)cc3OC)ncc2C(F)(F)F)c1 [Compound 7, N-(3-((2-((4-(8-acetyl-3,8-diazabicyclo[3.2.1]octan-3-yl)-2-methoxyphenyl)amino)-5-(trifluoromethyl)pyrimidin-4-yl)amino)phenyl)acrylamide]",IC50,"[2]; Table 4, unit inferred",6.2 nM
same,Selectivity (WT/T790M),[2]; Table 4,53.5
same,IC50,"[3]; Table 4, unit inferred",332 nM
"C=CC(=O)Nc1cccc(Nc2nc(Nc3ccc(N4C[C@H]5CN(C(C)=O)C[C@H]5C4)cc3OC)ncc2C(F)(F)F)c1 [Compound 9-1, N-(3-((2-((4-((cis)-5-acetylhexahydropyrrolo[3,4-c]pyrrol-2(1H)-yl)-2-methoxyphenyl)amino)-5-(trifluoromethyl)pyrimidin-4-yl)amino)phenyl)acrylamide]",IC50,[1]; Table 7,119 nM
same,Selectivity WT/L858R,[1]; Table 7,4.7
same,IC50,[2]; Table 7,9 nM
same,Selectivity (WT/T790M),[2]; Table 7,62.2
same,IC50,[3]; Table 7,560 nM
same,IC50,[4]; Table 7,12.6 nM
same,Selectivity WT/T790M-L858R,[4]; Table 7,44.5
same,IC50,[5]; Table 7,92.7 nM
same,Selectivity WT/d746-750,[5]; Table 7,6.0
"C=CC(=O)Nc1cccc(Nc2nc(Nc3cc4c(cc3OC)CN(C(C)=O)CC4)ncc2C(F)(F)F)c1 [Compound 11, N-(3-((2-((2-acetyl-7-methoxy-1,2,3,4-tetrahydroisoquinolin-6-yl)amino)-5-(trifluoromethyl)pyrimidin-4-yl)amino)phenyl)acrylamide]",IC50,[2]; Table 2,13 nM
same,Selectivity (WT/T790M),[2]; Table 2,49.2
same,IC50,[6]; Table 9,179 nM
same,Selectivity (A431/H1975),[6]; Table 9,9.9
same,IC50,[7]; Table 9,1770 nM
same,IC50,[3]; Table 2,640 nM
"C=CC(=O)Nc1cccc(Nc2nc(Nc3ccc4c(c3OC)CN(C(C)=O)CC4)ncc2C(F)(F)F)c1 [Compound 17, N-(3-((2-((2-acetyl-8-methoxy-1,2,3,4-tetrahydroisoquinoline-7-yl)amino)-5-(trifluoromethyl)pyrimidin-4-yl)amino)phenyl)acrylamide]",IC50,"[2]; Table 4, unit inferred",16 nM
same,Selectivity (WT/T790M),[2]; Table 4,85.6
same,IC50,"[3]; Table 4, unit inferred",1370 nM
"C=CC(=O)Nc1cccc(Nc2nc(Nc3ccc(C4CCNC(=O)C4)cc3OC)ncc2C(F)(F)F)c1 (stereo not shown) [Compound 22, N-(3-((2-((2-methoxy-4-(2-oxopiperidin-4-yl)phenyl)amino)-5-(trifluoromethyl)pyrimidin-4-yl)amino)phenyl)acrylamide]",IC50,[1]; Table 7,28.2 nM
same,Selectivity WT/L858R,[1]; Table 7,6.4
same,IC50,[2]; Table 7,2.7 nM
same,Selectivity (WT/T790M),[2]; Table 7,67.2
same,IC50,[3]; Table 7,181 nM
same,IC50,[4]; Table 7,4.06 nM
same,Selectivity WT/T790M-L858R,[4]; Table 7,44.6
same,IC50,[5]; Table 7,28.3 nM
same,Selectivity WT/d746-750,[5]; Table 7,6.4
"C=CC(=O)Nc1cccc(Nc2nc(Nc3ccc(C4CCN(CCF)C(=O)C4)cc3OC)ncc2C(F)(F)F)c1 (stereo not shown) [Compound 23, N-(3-((2-((4-(1-(2-fluoroethyl)-2-oxopiperidin-4-yl)-2-methoxyphenyl)amino)-5-(trifluoromethyl)pyrimidin-4-yl)amino)phenyl)acrylamide]",IC50,"[2]; Table 4, unit inferred",3.9 nM
same,Selectivity (WT/T790M),[2]; Table 4,75.4
same,IC50,"[3]; Table 4, unit inferred",294 nM
"C=CC(=O)Nc1cccc(Nc2nc(Nc3ccc(C4CCN(C(=O)CC)CC4)cc3OC)ncc2C(F)(F)F)c1 [Compound 24, N-(3-((2-((2-methoxy-4-(1-propionylpiperidin-4-yl)phenyl)amino)-5-(trifluoromethyl)pyrimidin-4-yl)amino)phenyl)acrylamide]",IC50,[1]; Table 7,109 nM
same,Selectivity WT/L858R,[1]; Table 7,6.1
same,IC50,[2]; Table 7,9.1 nM
same,Selectivity (WT/T790M),[2]; Table 7,73.2
same,IC50,[3]; Table 7,666 nM
same,IC50,[4]; Table 7,10.2 nM
same,Selectivity WT/T790M-L858R,[4]; Table 7,65.4
same,IC50,[5]; Table 7,91.7 nM
same,Selectivity WT/d746-750,[5]; Table 7,7.3
"C=CC(=O)Nc1cccc(Nc2nc(Nc3ccc(C4CCN(C(=O)CCF)CC4)cc3OC)ncc2C(F)(F)F)c1 [Compound 25, N-(3-((2-((4-(1-(3-fluoropropionyl)piperidin-4-yl)-2-methoxyphenyl)amino)-5-(trifluoromethyl)pyrimidin-4-yl)amino)phenyl)acrylamide]",IC50,"[2]; Table 4, unit inferred",7.1 nM
same,Selectivity (WT/T790M),[2]; Table 4,96.2
same,IC50,"[6]; Table 10, unit inferred",308 nM
same,Selectivity (A431/H1975),[6]; Table 10,12.6
same,IC50,"[7]; Table 10, unit inferred",3890 nM
same,IC50,"[3]; Table 4, unit inferred",683 nM
"C=CC(=O)Nc1cccc(Nc2nc(Nc3ccc(C4CCN(C)CC4)cc3OC)ncc2C(F)(F)F)c1 [Compound 29, N-(3-((2-((2-methoxy-4-(1-methylpiperidin-4-yl)phenyl)amino)-5-(trifluoromethyl)pyrimidin-4-yl)amino)phenyl)acrylamide]",IC50,"[2]; Table 4, unit inferred",0.32 nM
same,Selectivity (WT/T790M),[2]; Table 4,34.4
same,IC50,"[6]; Table 10, unit inferred",22.5 nM
same,Selectivity (A431/H1975),[6]; Table 10,12.1
same,IC50,"[7]; Table 10, unit inferred",272 nM
same,IC50,"[3]; Table 4, unit inferred",11 nM
"C=CC(=O)Nc1cccc(Nc2nc(Nc3ccc(OC)c4c3CCN(C(C)=O)C4)ncc2C(F)(F)F)c1 [Compound 35, N-(3-((2-((2-acetyl-8-methoxy-1,2,3,4-tetrahydroisoquinoline-5-yl)amino)-5-(trifluoromethyl)pyrimidin-4-yl)amino)phenyl)acrylamide]",IC50,"[6]; Table 10, unit inferred",266 nM
same,Selectivity (A431/H1975),[6]; Table 10,13.5
same,IC50,"[7]; Table 10, unit inferred",3600 nM
"C=CC(=O)Nc1cccc(Nc2nc(Nc3ccc(OC)c4c3CN(C(C)=O)C4)ncc2C(F)(F)F)c1 [Compound 36, N-(3-((2-((2-acetyl-7-methoxyisoindolin-4-yl)amino)-5-(trifluoromethyl)pyrimidin-4-yl)amino)phenyl)acrylamide]",IC50,"[6]; Table 10, unit inferred",326 nM
same,Selectivity (A431/H1975),[6]; Table 10,21.5
same,IC50,"[7]; Table 10, unit inferred",7000 nM
"C=CC(=O)Nc1cccc(Nc2nc(Nc3cccc4c3CCN(C(C)=O)C4)ncc2C(F)(F)F)c1 [Compound 37, N-(3-((2-((2-acetyl-1,2,3,4-tetrahydroisoquinoline-5-yl)amino)-5-(trifluoromethyl)pyrimidin-4-yl)amino)phenyl)acrylamide]",IC50,"[2]; Table 4, unit inferred",9.9 nM
same,Selectivity (WT/T790M),[2]; Table 4,129.7
same,IC50,"[3]; Table 4, unit inferred",1280 nM
